{
  "source": "patent US12240810B2",
  "about": "“Chiral-substituted poly-N-vinylpyrrolidinones and complexes with bimetallic nanoclusters and uses thereof in asymmetric oxidation reactions” (Kansas State University Research Foundation, priority 2019, dated 2025)",
  "origin": "cited, not measured here",
  "system": "Staphylococcus aureus",
  "settings": "antibacterial activity, background statement on the natural product",
  "data": [
    {"smiles": "CC=CCCCC[C@@]1(O)[C@H](C)C(=O)N2CCC[C@@]21CO", "note": "[compound 113, (−)-Penibruguieramine A]", "values": [
      {"measurement": "MIC value", "result": 6.4, "unit": "µg/mL"}
    ]}
  ]
}
